Data set [1] in a line: HLM stability. It is filed as in vitro ADME.
Data set [2] addresses recombinant HCV NS3 protease, genotype 1b (Hepatitis C virus genotype 1b, UniProt Q9WMX2). Briefly: biochemical. Conditions: genotype 1b NS3 protease; read-out: IC50 in a 1b enzyme assay.
The target of data set [3] is recombinant HCV NS3 protease, genotype 1a (Hepatitis C virus genotype 1a, UniProt P27958). In words: biochemical. Conditions: genotype 1a NS3 protease; read-out: IC50 in a 1a enzyme assay.
Data set [4] concerns HCV genotype 1b replicon (1b-Con-1). Briefly: microbe, parasite or virus in culture. Conditions: Hepatitis C virus, read-out: EC50 in a replicon cell line assay in a 1b-con1 background. It is filed as cell-based. For orientation: In antiviral work, replicon cells carry a viral genome segment that copies itself.
For data set [5], the system named is HCV genotype 1a replicon (1a-H77). In words: microbe, parasite or virus in culture. Conditions: Hepatitis C virus, read-out: EC50 in a replicon cell line assay in a 1a-H77 background. It is filed as cell-based.

pEC50, pIC50: −log10 of the molar value.

Sequence of recombinant HCV NS3 protease, genotype 1b (Q9WMX2 1027-1657, other chains not shown): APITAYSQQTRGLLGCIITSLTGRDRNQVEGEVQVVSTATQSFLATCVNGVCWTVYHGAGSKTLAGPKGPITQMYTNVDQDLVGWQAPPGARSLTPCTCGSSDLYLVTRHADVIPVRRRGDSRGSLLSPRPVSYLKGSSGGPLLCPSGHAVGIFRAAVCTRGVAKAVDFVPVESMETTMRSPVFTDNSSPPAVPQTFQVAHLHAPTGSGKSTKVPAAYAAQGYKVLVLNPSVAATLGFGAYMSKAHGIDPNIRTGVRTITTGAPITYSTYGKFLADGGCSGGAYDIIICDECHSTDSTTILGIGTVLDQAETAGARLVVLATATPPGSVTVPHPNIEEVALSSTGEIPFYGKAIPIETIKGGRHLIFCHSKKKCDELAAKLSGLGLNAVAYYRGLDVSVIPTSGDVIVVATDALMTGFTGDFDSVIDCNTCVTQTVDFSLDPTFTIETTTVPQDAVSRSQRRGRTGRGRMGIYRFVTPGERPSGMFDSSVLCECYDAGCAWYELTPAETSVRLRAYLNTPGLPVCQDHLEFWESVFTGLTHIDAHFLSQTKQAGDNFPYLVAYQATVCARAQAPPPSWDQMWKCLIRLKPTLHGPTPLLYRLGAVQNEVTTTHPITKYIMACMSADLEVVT
Sequence of recombinant HCV NS3 protease, genotype 1a (P27958 1027-1657, other chains not shown): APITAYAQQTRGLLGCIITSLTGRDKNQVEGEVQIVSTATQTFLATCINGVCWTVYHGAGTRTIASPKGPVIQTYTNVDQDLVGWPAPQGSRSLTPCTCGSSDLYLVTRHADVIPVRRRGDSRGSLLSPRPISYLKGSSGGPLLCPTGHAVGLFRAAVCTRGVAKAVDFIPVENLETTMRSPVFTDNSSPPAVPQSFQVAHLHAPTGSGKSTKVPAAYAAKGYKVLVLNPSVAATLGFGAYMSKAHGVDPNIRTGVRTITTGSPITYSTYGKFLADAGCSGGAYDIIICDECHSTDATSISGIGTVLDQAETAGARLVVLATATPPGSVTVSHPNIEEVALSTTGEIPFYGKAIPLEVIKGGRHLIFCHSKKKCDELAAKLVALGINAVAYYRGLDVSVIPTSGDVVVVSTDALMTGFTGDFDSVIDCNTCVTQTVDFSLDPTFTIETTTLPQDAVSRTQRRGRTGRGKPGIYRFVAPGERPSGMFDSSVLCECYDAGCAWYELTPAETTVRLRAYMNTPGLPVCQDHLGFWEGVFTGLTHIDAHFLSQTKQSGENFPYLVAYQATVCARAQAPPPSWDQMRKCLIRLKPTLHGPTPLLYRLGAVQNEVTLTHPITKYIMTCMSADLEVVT

As usually defined, the pIC50 is the negative decadic logarithm of the IC50, by convention in mol/L. Turning to `CC(C)(C)OC(=O)N[C@H]1CCCCCC(F)(F)C[C@@H]2C[C@@]2(C(=O)NS(=O)(=O)C2CC2)NC(=O)[C@@H]2C[C@@H](Oc3cnc4ccccc4n3)CN2C1=O` [Example 1, tert-butyl(2R,6S,13aS,14aR,16aS)-14a-(cyclopropylsulfonylcarbamoyl)-12,12-difluoro-5,16-dioxo-2-(quinoxalin-2-yloxy)octadecahydrocyclopropa[e]pyrrolo[1,2-a][1,4]diazacyclopentadecin-6-ylcarbamate], in data set [1], the HLM stability value is 50 to 100 µL/min/mg. In addition, the pIC50 in data set [2] and in data set [3] was less than 9.00 throughout.

For the molecule `Cc1cc(C(=O)N[C@H]2CCCCCC(F)(F)C[C@@H]3C[C@@]3(C(=O)NS(=O)(=O)C3CC3)NC(=O)[C@@H]3C[C@@H](Oc4cnc5ccccc5n4)CN3C2=O)no1` [Example 2, N-((2R,6S,13aS,14aR,16aS)-14a-(cyclopropylsulfonylcarbamoyl)-12,12-difluoro-5,16-dioxo-2-(quinoxalin-2-yloxy)octadecahydrocyclopropa[e]pyrrolo[1,2-a][1,4]diazacyclopentadecin-6-yl)-5-methylisoxazole-3-carboxamide], in data set [1], the HLM stability value is less than 50 µL/min/mg.

With `Cc1nc2ccccc2nc1O[C@@H]1C[C@H]2C(=O)N[C@]3(C(=O)NS(=O)(=O)C4CC4)C[C@H]3CC(F)(F)CCCCC[C@H](NC(=O)OC(C)(C)C)C(=O)N2C1` [Example 3, tert-butyl (2R,6S,13aS,14aR,16aS)-14a-(cyclopropylsulfonylcarbamoyl)-12,12-difluoro-2-(3-methylquinoxalin-2-yloxy)-5,16-dioxooctadecahydrocyclopropa[e]pyrrolo[1,2-a][1,4]diazacyclopentadecin-6-ylcarbamate], the pIC50 in data set [2] and in data set [3] was 9.30 to 10.00 throughout.

The molecule `Cc1cc(C(=O)N[C@H]2CCCCCC(F)(F)C[C@@H]3C[C@@]3(C(=O)NS(=O)(=O)C3CC3)NC(=O)[C@@H]3C[C@@H](Oc4nc5ccccc5nc4C)CN3C2=O)no1` [Example 4, N-((2R,6S,13aS,14aR,16aS)-14a-(cyclopropylsulfonylcarbamoyl)-12,12-difluoro-2-(3-methylquinoxalin-2-yloxy)-5,16-dioxooctadecahydrocyclopropa[e]pyrrolo[1,2-a][1,4]diazacyclopentadecin-6-yl)-5-methylisoxazole-3-carboxamide] registered an HLM stability value in data set [1] of less than 50 µL/min/mg.

On to `CC(C)(C)OC(=O)N[C@H]1CCCCCC(F)(F)C[C@@H]2C[C@@]2(C(=O)NS(=O)(=O)C2CC2)NC(=O)[C@@H]2C[C@@H](Oc3nc4ccccc4nc3-c3ccccc3)CN2C1=O` [Example 5, tert-butyl (2R,6S ,13aS,14aR,16aS)-14a-(cyclopropylsulfonylcarbamoyl)-12,12-difluoro-5,16-dioxo-2-(3-phenylquinoxalin-2-yloxy)octadecahydrocyclopropa[e]pyrrolo[1,2-a][1,4]diazacyclopentadecin-6-ylcarbamate], for which the negative logarithm of the IC50 (pIC50) in data set [2] and in data set [3] was 9.00 to 9.30 in each case.

In turn, `Cc1cc(C(=O)N[C@H]2CCCCCC(F)(F)C[C@@H]3C[C@@]3(C(=O)NS(=O)(=O)C3CC3)NC(=O)[C@@H]3C[C@@H](Oc4nc5ccccc5nc4-c4ccccc4)CN3C2=O)no1` [Example 6, N-((2R,6S,13aS,14aR,16aS)-14a-(cyclopropylsulfonylcarbamoyl)-12,12-difluoro-5,16-dioxo-2-(3-phenylquinoxalin-2-yloxy)octadecahydrocyclopropa[e]pyrrolo[1,2-a][1,4]diazacyclopentadecin-6-yl)-5-methylisoxazole-3-carboxamide] yielded an HLM stability value in data set [1] of less than 50 µL/min/mg.

As a reminder, the pEC50 is −log10 of the EC50, conventionally taken in molar units. `CCc1nc2ccccc2nc1O[C@@H]1C[C@H]2C(=O)N[C@]3(C(=O)NS(=O)(=O)C4CC4)C[C@H]3CC(F)(F)CCCCC[C@H](NC(=O)OC(C)(C)C)C(=O)N2C1` [Example 7, tert-butyl (2R,6S,13aS,14aR,16aS)-14a-(cyclopropylsulfonylcarbamoyl)-2-(3-ethylquinoxalin-2-yloxy)-12,12-difluoro-5,16-dioxooctadecahydrocyclopropa[e]pyrrolo [1,2-a][1,4]diazacyclopentadecin-6-ylcarbamate]: the HLM stability value in data set [1] was greater than 100 µL/min/mg. Further, the pEC50 in data set [4] was 8.70 to 9.00; in data set [5], 8.30 to 8.70. Besides, the negative logarithm of the IC50 (pIC50) in data set [2] was 9.30 to 10.00; in data set [3], 9.00 to 9.30.

In data set [1], `CCc1nc2ccccc2nc1O[C@@H]1C[C@H]2C(=O)N[C@]3(C(=O)NS(=O)(=O)C4(C)CC4)C[C@H]3CC(F)(F)CCCCC[C@H](NC(=O)OC(C)(C)C)C(=O)N2C1` [Example 8, tert-butyl (2R,6S ,13aS,14aR,16aS)-2-(3-ethylquinoxalin-2-yloxy)-12,12-difluoro-14a-(1-methylcyclopropylsulfonylcarbamoyl)-5,16-dioxooctadecahydrocyclopropa[e]pyrrolo[1,2-a][1,4]diazacyclopentadecin-6-ylcarbamate] came in with an HLM stability value greater than 100 µL/min/mg. For the same molecule, the pEC50 is 8.70 to 9.00 in data set [4] and 8.30 to 8.70 in data set [5]. The negative-log IC50 (pIC50) in data set [2] and in data set [3] was 9.30 to 10.00 each time.

Turning to `CCc1nc2ccccc2nc1O[C@@H]1C[C@H]2C(=O)N[C@]3(C(=O)NS(=O)(=O)C4CC4)C[C@H]3CC(F)(F)CCCCC[C@H](NC(=O)c3cc(C)on3)C(=O)N2C1` [Example 9, N-((2R,6S ,13aS,14aR,16aS)-14a-(cyclopropylsulfonylcarbamoyl)-2-(3-ethylquinoxalin-2-yloxy)-12,12-difluoro-5,16-dioxooctadecahydrocyclopropa[e]pyrrolo[1,2-a][1,4]diazacyclopentadecin-6-yl)-5-methylisoxazole-3-carboxamide], in data set [1], the HLM stability value was less than 50 µL/min/mg. The values for the pEC50 in data set [4] and in data set [5] were 8.70 to 9.00 and 8.30 to 8.70, respectively. Moreover, the pIC50 is 9.30 to 10.00 in data set [2] and 9.00 to 9.30 in data set [3].

The molecule `CCc1nc2ccccc2nc1O[C@@H]1C[C@H]2C(=O)N[C@]3(C(=O)NS(=O)(=O)C4(C)CC4)C[C@H]3CC(F)(F)CCCCC[C@H](NC(=O)c3cc(C)on3)C(=O)N2C1` [Example 10, N-((2R,6S,13aS,14aR,16aS)-2-(3-ethylquinoxalin-2-yloxy)-12,12-difluoro-14a-(1-methylcyclopropylsulfonylcarbamoyl)-5,16-dioxooctadecahydrocyclopropa[e]pyrrolo [1,2-a][1,4]diazacyclopentadecin-6-yl)-5-methylisoxazole-3-carboxamide] came in with an HLM stability value in data set [1] of less than 50 µL/min/mg. For the same molecule, the negative logarithm of the EC50 (pEC50) is 8.70 to 9.00 in data set [4] and 8.30 to 8.70 in data set [5].

Take `Cc1cc(C(=O)N[C@H]2CCCCCC(F)(F)C[C@@H]3C[C@@]3(C(=O)NS(=O)(=O)C3CC3)NC(=O)[C@@H]3C[C@@H](Oc4nc5ccccc5nc4-c4cc5ccccc5o4)CN3C2=O)no1` [Example 16, N-((2R,6S,13aS,14aR,16aS)-2-(3-(benzofuran-2-yl)quinoxaline-2-yloxy)-14a-(cyclopropylsulfonylcarbamoyl)-12,12-difluoro-5,16-dioxooctadecahydrocyclopropa[e]pyrrolo[1,2-a][1,4]diazacyclopentadecin-6-yl)-5-methylisoxazole-3-carboxamide]: the pIC50 in data set [2] and in data set [3] was 9.30 to 10.00 in each case.

In data set [1], `Cn1ccc(C(=O)N[C@H]2CCCCCC(F)(F)C[C@@H]3C[C@@]3(C(=O)NS(=O)(=O)C3CC3)NC(=O)[C@@H]3C[C@@H](Oc4nc5ccccc5nc4-c4cc5ccccc5o4)CN3C2=O)n1` [Example 17, (2R,6S,13aS,14aR,16aS)-2-(3-(benzofuran-2-yl)quinoxaline-2-yloxy)-N-(cyclopropylsulfonyl)-12,12-difluoro-6-(1-methyl-1H-pyrazole-3-carboxamido)-5,16-dioxooctadecahydrocyclopropa[e]pyrrolo [1,2-a][1,4]diazacyclopentadecine-14a-carboxamide] yielded an HLM stability value of less than 50 µL/min/mg. Also, the results for the pIC50 in data set [2] and in data set [3] were greater than 10.00 and 9.30 to 10.00, respectively.

Take `Cc1cc(C(=O)N[C@H]2CCCCCC(F)(F)C[C@@H]3C[C@@]3(C(=O)NS(=O)(=O)C3CC3)NC(=O)[C@@H]3C[C@@H](Oc4nc5ccccc5c5ccccc45)CN3C2=O)no1` [Example 18, N-((2R,6S,13aS,14aR,16aS)-14a-(cyclopropylsulfonylcarbamoyl)-12,12-difluoro-5,16-dioxo-2-(phenanthridin-6-yloxy)octadecahydrocyclopropa[e]pyrrolo[1,2-a][1,4]diazacyclopentadecin-6-yl)-5-methylisoxazole-3-carboxamide]: the negative logarithm of the EC50 (pEC50) in data set [4] and in data set [5] was greater than 9.00 in each case.

In turn, `Cc1cnc(C(=O)N[C@H]2CCCCCC(F)(F)C[C@@H]3C[C@@]3(C(=O)NS(=O)(=O)C3CC3)NC(=O)[C@@H]3C[C@@H](Oc4nc5ccccc5c5ccccc45)CN3C2=O)cn1` [Example 20, (2R,6S,13aS,14aR,16aS)-N-(cyclopropylsulfonyl)-12,12-difluoro-6-(5-methylpyrazine-2-carboxamido)-5,16-dioxo-2-(phenanthridin-6-yloxy)octadecahydrocyclopropa[e]pyrrolo[1,2-a][1,4]diazacyclopentadecine-14a-carboxamide] yielded an HLM stability value in data set [1] of less than 50 µL/min/mg.

`Cc1cc(C(=O)N[C@H]2CCCCCC(F)(F)C[C@@H]3C[C@@]3(C(=O)NS(=O)(=O)C3CC3)NC(=O)[C@@H]3C[C@@H](Oc4nc5ccccc5c5ccccc45)CN3C2=O)nn1C` [Example 21, (2R,6S,13aS,14aR,16a5)-N-(cyclopropylsulfonyl)-6-(1,5-dimethyl-1H-pyrazole-3-carboxamido)-12,12-difluoro-5,16-dioxo-2-(phenanthridin-6-yloxy)octadecahydrocyclopropa[e]pyrrolo[1,2-a][1,4]diazacyclopentadecine-14a-carboxamide] had an HLM stability value in data set [1] of less than 50 µL/min/mg.

The record behind these values is patent US8937041B2, “Macrocyclic hepatitis C serine protease inhibitors” (AbbVie, Inc., priority 2010, dated 2015).
